Assay results from ChEMBL document CHEMBL5143714, “Discovery of BMS-986339, a Pharmacologically Differentiated Farnesoid X Receptor Agonist for the Treatment of Nonalcoholic Steatohepatitis” (J Med Chem, 2022).

What was measured:
[1] = biological target: T1, Bile acid receptor (Mus musculus) (UniProt Q60641); assay: Agonist activity at LBD-fused mouse FXR in HEK293 cells incubated for 30 min by envision plate reader method relative to GW2064; format: cell-based; conditions: filed as agonist
T1 sequence (whole entry): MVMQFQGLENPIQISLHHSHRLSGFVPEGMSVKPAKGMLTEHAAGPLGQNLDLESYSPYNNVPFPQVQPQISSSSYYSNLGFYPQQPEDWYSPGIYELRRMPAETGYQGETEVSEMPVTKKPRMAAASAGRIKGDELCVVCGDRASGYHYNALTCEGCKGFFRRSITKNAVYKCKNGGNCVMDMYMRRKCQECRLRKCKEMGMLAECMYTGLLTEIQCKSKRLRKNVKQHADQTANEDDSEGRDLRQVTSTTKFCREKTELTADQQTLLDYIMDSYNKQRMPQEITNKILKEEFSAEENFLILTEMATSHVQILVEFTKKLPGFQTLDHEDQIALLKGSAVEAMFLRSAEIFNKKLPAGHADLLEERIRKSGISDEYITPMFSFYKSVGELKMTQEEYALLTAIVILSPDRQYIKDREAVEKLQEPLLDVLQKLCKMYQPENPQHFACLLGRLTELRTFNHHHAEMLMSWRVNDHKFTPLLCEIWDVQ

[2] = test system: Bile acid receptor (Homo sapiens); assay: Agonist activity at human FXR expressed in HEK293 cells coexpressing IBABP relative to GW2064; conditions: filed as agonist
[3] = Metabolic stability in human liver microsome assessed as parent compound remaining at 1 mg/mL measured after 10 mins; format: ADME; conditions: liver microsomes, read-out: Stability
[4] = Metabolic stability in mouse liver microsome assessed as parent compound remaining at 1 mg/mL measured after 10 mins; format: ADME; conditions: liver microsomes, read-out: Stability
[5] = biological target: T2, Bile acid receptor (Homo sapiens) (UniProt Q96RI1); assay: Agonist activity at LBD-fused human FXR in HEK293 cells incubated for 30 min by envision plate reader method relative to GW2064; format: cell-based
T2 sequence (whole entry): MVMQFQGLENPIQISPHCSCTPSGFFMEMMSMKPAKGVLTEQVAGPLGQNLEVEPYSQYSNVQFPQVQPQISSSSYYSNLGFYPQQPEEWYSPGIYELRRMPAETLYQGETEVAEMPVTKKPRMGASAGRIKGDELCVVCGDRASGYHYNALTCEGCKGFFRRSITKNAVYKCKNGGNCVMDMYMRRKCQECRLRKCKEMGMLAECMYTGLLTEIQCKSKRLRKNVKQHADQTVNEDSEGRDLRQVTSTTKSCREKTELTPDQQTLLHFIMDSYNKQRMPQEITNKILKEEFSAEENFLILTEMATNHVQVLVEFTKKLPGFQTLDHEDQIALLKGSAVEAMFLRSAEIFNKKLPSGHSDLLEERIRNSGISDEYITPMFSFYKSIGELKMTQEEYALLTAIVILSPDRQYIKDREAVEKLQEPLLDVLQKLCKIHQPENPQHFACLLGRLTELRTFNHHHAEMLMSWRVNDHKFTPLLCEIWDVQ

[6] = Metabolic stability in rat liver microsome assessed as parent compound remaining at 1 mg/mL measured after 10 mins; format: ADME; conditions: liver microsomes, read-out: Stability
[7] = test system: Bile acid receptor (Homo sapiens); assay: Agonist activity at human FXR expressed in HEK293 cells coexpressing human FGF19 incubated for 24 hrs by ELISA analysis relative to GW2064
[8] = biological target: T3, Bile acid receptor (Homo sapiens, UniProt Q96RI1); assay: Agonist activity at Gal4-fused human FXR in HEK293 cells incubated for 15 min by luciferase reporter assay; format: cell-based
T3 sequence (Q96RI1 whole entry): T2 sequence (whole entry)

[9] = biological target: T4, Bile acid receptor (Mus musculus, UniProt Q60641); assay: Agonist activity at mouse LBD fused FXR in HEK293 cells incubated for 30 min by envision plate reader method; format: cell-based
T4 sequence (Q60641 whole entry): T1 sequence (whole entry)

With `COC(=O)/C=C/c1cccc(N(CC23CCC(c4ccc(N(C)C)cc4)(CC2)CC3)C(=O)C2CCCCC2)c1` the Emax [1] was 279%, the Emax [2] was 42% and the remaining at 10 min [3] was 90%. For the same compound, the remaining at 10 min [4] was 77%, the Emax [5] was 30% and the remaining at 10 min, 1 mg/mL [6] was 32%. It also gave an Emax [7] of 24% and an EC50 [8] of 66 nM.
With `O=C(O)c1cc(C(F)(F)F)c2cc(N3CCC4(C=C(c5c(-c6c(Cl)cncc6Cl)noc5C5CC5)C4)CC3)ccc2n1` the EC50 [9] was 320 nM.
